The source of these data is patent publication US20070117794A1, “Methods of treatment using oxytocin receptor agonists” (Wyeth, priority 2005, published 2007).

Each structure is given as a SMILES string.

The subject of one assay is mouse. To be noted: OT 3 mg/kg, i.p.; cited from earlier work.
For the next assay, the system named is Male Swiss-Webster mice. Nature of the assay: Four-Plate Test (FPT), punished crossings. As to conditions: 30 minutes prior to testing; for increase in punished crossings from vehicle: icv, p<0.05. Format: in vivo, mouse. As for the experimental part:
Animals: Male Swiss-Webster mice weighing 18-24 g were housed in groups of 15 in hanging wire cages, allowed access to food and water ad libitum, and maintained on a 12-hour light dark cycle. All behavioral testing was performed during the light cycle. All studies were previously approved by the Institutional Animal Care and Use Committee, and performed in accordance to the Guide for the Care and Use of Laboratory Animals as adopted and promulgated by the National Institutes of Health.
Test Compounds: Oxytocin (American Peptide Company, Sunnyvale, Calif.) was dissolved in a saline vehicle. The oxytocin agonist 4,-(3,5-Dihydroxy-benzyl)-piperazine-1-carboxylic acid 2-methyl-4-(3-methyl-4,10-dihydro-3H-2,3,4,9-tetra-aza-benzo[f]azulene-9-carbonyl)-benzylamide (hereinafter “cpd A”) and oxytocin antagonist 10-[(2-Methyl-2′-trifluoromethyl-[1,1′-biphenyl]-4-yl)carbonyl]-10,11-dihydro-5H-pyrrolo[2,1-c][1,4]benzodiazepine-3-carboxylic acid-bis-(2-hydroxy-ethyl)-amide (hereinafter “cpd B”) (Patent W/O 02/083680) were prepared and dissolved in a 1% Tween-80/1% DMSO/saline vehicle.
ICV injections: Mice were lightly anesthetized with halothane. Oxytocin was administered into either the left or right ventricle by visual location. A 26 gauge Hamilton syringe with 3 mm needle was used for injections and the injection site was visualized by locating the middle of the invisible line that runs diagonally from the left eye to the right ear. Test compounds were injected in a 2 μl total volume.
Four-Plate Test (FPT:) The four-plate apparatus consists of a Plexiglas chamber (18×25×16 cm) floored with four identical rectangular metal plates (8×11 cm), which are separated from one another by a gap of 4 mm and connected to a computerized device that can deliver electric shocks (0.8 mA, 0.5 sec) (Aron et al. Evaluation of a rapid technique for detecting minor tranquilizers, Neuropharmacology 10: 459-69 (1971)). In this test, mice are placed into the chamber and following a brief (18 seconds) habituation period, the animal's innate motivation to explore the novel environment is suppressed by the delivery of a mild foot shock every time the animal crosses any of the boundaries (gaps) while moving from one plate to another (referred to as a ‘punished crossing’). Following any punished crossing, there is a 3-second time out where the mouse may cross the electric plates without receiving another shock. An experimenter blind to the dosing conditions administers shocks, and a computer records the total number of punished crossings an animal makes during a 1-minute testing period. […] Pharmacol Biochem Behav 65: 339-44 (2000)). In all experiments, the testing procedure consisted of either a single injection or two injections followed by a test session 30 minutes later.
Statistical Analysis: One-way analysis of variance (ANOVA) was performed to determine effects of test compound treatments, followed by Least Significant Difference Tests for a post hoc analysis. All figures are shown with average ±SEM.

The next assay addresses T1, OTR (Homo sapiens, UniProt P30559).
T1 sequence (P30559 1-389): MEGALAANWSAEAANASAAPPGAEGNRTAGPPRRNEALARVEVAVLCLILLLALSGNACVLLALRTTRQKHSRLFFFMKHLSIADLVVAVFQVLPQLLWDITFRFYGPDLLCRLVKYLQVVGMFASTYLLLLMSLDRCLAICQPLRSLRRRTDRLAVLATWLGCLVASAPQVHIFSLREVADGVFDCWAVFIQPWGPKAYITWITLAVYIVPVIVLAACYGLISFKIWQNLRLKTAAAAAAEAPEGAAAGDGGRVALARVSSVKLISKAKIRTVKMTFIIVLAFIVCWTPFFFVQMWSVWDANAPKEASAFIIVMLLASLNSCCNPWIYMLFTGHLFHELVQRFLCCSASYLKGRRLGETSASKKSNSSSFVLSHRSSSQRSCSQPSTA
To be noted: cited from earlier work.

For a further assay, the system named is rat. To be noted: subcutaneous oxytocin; deficit induced by dizocilpine and amphetamine; cited from earlier work.
For the next assay, the system named is rats. As to conditions: cited from earlier work.
In assay [1] the test system is Male Sprague-Dawley derived Rats. Nature of the assay: Prepulse inhibition of the acoustic startle reflex (PPI), MK801 disrupted. The assay is classed as in vivo, rat. As to conditions: oxytocin 0.04-1 mg/kg s.c.; data not shown. From the text:
Prepulse inhibition of the acoustic startle reflex (PPI) is an operational measure of sensorimotor gating that can be measured across many species. Deficits in PPI have been reported in patients with schizophrenia, leading to its use as a preclinical model of the disease. In rats, PPI is decreased in a manner homologous to that seen in schizophrenia following administration of certain psychotomimetic drugs (e.g. MK801; amphetamine). In our study we utilized MK801, a non-competitive NMDA antagonist and d-Amphetamine, a non-selective dopamine agonist.
Animals: Male Sprague-Dawley derived Rats (SD) weighing 200-250 g were group housed in standard bedding cages, allowed access to food and water ad libitum, and maintained on a 12-hour light dark cycle. All behavioral testing was performed during the light cycle. All studies were previously approved by the Institutional Animal Care and Use Committee, and performed in accordance to the Guide for the Care and Use of Laboratory Animals as adopted and promulgated by the National Institutes of Health.
Test Compounds: The oxytocin agonist cpd A was dissolved in a 1% Tween-80/1% DMSO/saline vehicle. MK801 (Sigma, St. Louis, Mo.) was dissolved in 2% Tween-80/saline. d-Amphetamine (Sigma, St. Louis, Mo.) was dissolved in saline.
Each testing chamber (SR-LAB system, San Diego Instruments) consisted of a Plexiglas cylinder (8.8 cm in diameter) mounted on a frame and held in position by four metal pins to a base unit. Movement of the rat within the cylinder was detected by a piezoelectric accelerometer attached below the frame. […] Presentation of acoustic pulse and prepulse stimuli were controlled by the SR-LAB software and interface system, which also digitized, rectified and recorded the responses from the accelerometer. Mean startle amplitude was determined by averaging 100, 1 ms readings taken from the beginning of the pulse stimulus onset. For calibration purposes, sound levels were measured with a Quest sound level meter, scale “A”, with the microphone placed inside the Plexiglas cylinder. […]
Startle amplitude was defined as the mean value of pulse alone trials. To evaluate the effect of drug treatment on startle response, data from the pulse alone trials was analyzed using one-factor ANOVA with repeated measures (one-way randomized block design), followed by a least significant difference (LSD) post-hoc test (comparison was made to vehicle/disrupting agent control). […] Although data for gating at three different prepulse intensities was generated, an averaged gating score across all prepulse intensities was calculated and this was analyzed by one factor ANOVA with repeated measures (one-way randomized block design). […]

In the next assay the test system is male rats. As to conditions: OT 1-4 ug/kg, s.c.; cited from earlier work.

`CC[C@H](C)[C@@H]1NC(=O)[C@H](Cc2ccc(O)cc2)NC(=O)[C@@H](N)CSSC[C@@H](C(=O)N2CCC[C@H]2C(=O)N[C@@H](CC(C)C)C(=O)NCC(N)=O)NC(=O)[C@H](CC(N)=O)NC(=O)[C@H](CCC(N)=O)NC1=O` [Oxytocin]: the “activity in elevated-plus maze” value in the assay on mouse is recorded as “anxiolytic-like activity”. Besides, the “increase in punished crossings from vehicle” value in the assay on Male Swiss-Webster mice (oxytocin 3 μg) is listed as 30%; in the assay with Male Swiss-Webster mice (oxytocin 10 μg), 51%. In addition, the “punished crossings (effect in words)” value with Male Swiss-Webster mice (oxytocin 1-10 μg icv (b94 prints 1-10 mg)) is listed as “dose-dependent increase in punished crossings”. In addition, the “selectivity for OT compared to AVP at the OTR” value on OTR is on record as 10 fold. Further, in the assay with rat, the “restoration of prepulse inhibition” value is reported as “dose-dependently restore prepulse inhibition”. In addition, in the assay with rats (OT 10-100 ng, i.c.v.), the “open arm entries and time spent in the open arms of the elevated plus-maze” value is “increases in open arm entries and time spent in the open arms”. Also, the “activity in the elevated-plus maze” value in the assay on rats (pregnant or lactating rats, but not virgin rats) is reported as “Anxiolytic activity”. In assay [1], the “reversal of MK801 induced deficits in PPI” value is recorded as “reversed the MK801 induced deficits in PPI in rats in a dose dependent manner”. Moreover, the “peripheral locomotor activity in the Open-Field model” value in the assay on male rats is listed as “decrease in peripheral locomotor activity”.
